pIC50: −log10 of the molar value.
What was measured:
neutrophil infiltration = experiment: Lipopolysaccharide induced pulmonary neutrophilia in female Wistar rats; type: in vivo
Description: After the quarantine period, fasted animals were randomized and divided into groups depending on their body weights. Test compound was prepared as a suspension in a vehicle consisting of 0.5% methylcellulose in which Tween 80 was used as a suspending agent. Compounds or vehicle were administered by oral gavage in a volume of 10 mL/kg. Animals were anaesthetized with ketamine and LPS solution was administered intratracheally 30 minutes after compound administration at a dose of 1 mg/kg. Six hours after LPS instillation, animals were exsanguinated under anaesthesia, and the trachea was cannulated, and lungs were lavaged with 5-ml aliquots of heparinised PBS (1 unit/ml) four times through the tracheal cannula (total volume 20 ml). Bronchioalveolar (BAL) fluid was stored at 2-8° C. until assayed for total cell and differential leukocyte count. BAL fluid was centrifuged (500×g for 10 min) and the resulting cell pellet was resuspended in 0.5 ml of heparinised saline. The total numbers of white blood cells were determined in BAL fluid or blood using a cell counter and were adjusted to 1×10^6 cell/ml. Differential cell count was calculated manually. One hundred microliters of the cell suspension was centrifuged using cytospin 3 to prepare a cell smear. The cell smear was stained with a blood staining solution for differentiation and slides were microscopically observed to identify eosinophils according to their morphological characteristics. The number of each cell type among 300 white blood cells in the cell smear was determined and expressed as a percentage of total cells. The number of eosinophil in BALF was calculated.
The procedure for LPS induced pulmonary neutrophilia in female Wistar rats as described in Example 1 was performed with compound A1 and roflumilast.

TNFα = experiment: LPS induced TNFα in PBMC; type: cell-based; details: 10 nM alone, LPS
Description: PBMC (peripheral blood mononuclear cells) from whole blood were isolated by density gradient using Histopaque and incubated with the desired concentration of inhibitor for 15 minutes. LPS (1 μg/ml) was added and then incubated for 24 hours. The supernatant was collected and TNFα estimated using an eBioscience TNFα ELISA kit.
PBMC from whole blood were isolated by density gradient using Histopaque and incubated with the desired concentration of inhibitor for 15 minutes. LPS (1 μg/m1) was added and then incubated for 24 hours. The supernatant was collected and TNFα estimated using an eBioscience TNFα ELISA kit.

pAkt (S473) = experiment: phospho-Akt (S473) in differentiated U937 cells stimulated with cigarette smoke extract (SDS-PAGE); type: cell-based; details: Homo sapiens, U-937; compound alone; differentiated U937, CSE; read-out: IC50 of inhibition of Akt phosphorylation
Description: U-937 monocytes were differentiated into macrophages by incubation with 50 ng/ml PMA for 48 h. Cells were trypsinized and plated at a density of 100,000 per well and stimulated with CSE for 2 h in starvation media. Lysates were made using RIPA buffer and run by SDS-PAGE, transferred to PVDF membrane and probed with phospho-Akt (S473) antibody (Cell signaling, USA) followed by anti-rabbit IgG (Cell signaling, USA). Band intensity was calculated using ImageJ 1.42 (NIH, USA).

[1] = test system: macrophage and neutrophil infiltration; experiment: Chronic cigarette smoke induced cell infiltration in male Balb/c mice; type: in vivo; details: alone at 1 mg/kg oral; chronic CS, mouse
Description: Animals were acclimatized for seven days prior to the start of the experiment. Animals were randomly distributed to various groups based on their body weights. Mice were exposed to the mainstream smoke of 4 cigarettes from day 1 to day 11. Exposure to the smoke of each cigarette lasted for […] (each cigarette was completely burned in the first two minutes, followed by an air flow with animal ventilator) and were exposed for the next 20 min with fresh room air. After every second cigarette an additional break of 20 min with exposure to fresh room air was conducted. Control animals were exposed to the room air chamber. Test compound was administered by the oral route from day 6 to day 11 before 30 mins whole body smoke exposure. On day 12, 24 hours after the last cigarette smoke (CS) exposure animals were exsanguinated under anaesthesia, and the trachea was cannulated and the lungs were lavaged with 0.5 ml aliquots of heparinised PBS (1 unit/nil) four times through tracheal cannula (total volume 2 ml). Bronchioalveolar (BAL) collected was stored at 2-8° C. until assayed for total cell and differential leukocyte count. BAL fluid was centrifuged (500×g for 10 min) and the resulting cell pellet was resuspended in 0.5 ml of heparinised saline. The total number of white blood cells was determined in BAL fluid and blood using a blood cell counter and adjusted to 1×10^6 cell/ml. Differential cell count was calculated manually Forty microliters of the cell suspension was centrifuged using cytospin 3 to prepare a cell smear. The cell smear was stained with a blood staining solution for differentiation and microscopically observed by identifying each cell according to its morphological characteristics. The number of each cell type among 300 white blood cells in the cell smear was determined and expressed as a percentage, and the number of neutrophils and macrophages in each BAL fluid were calculated.

elastase = experiment: fMLP induced elastase release from human neutrophils; type: cell-based; details: Neutrophil, compound alone
Description: Blood was procured from a local blood bank. Neutrophils were obtained using the dextran sedimentation method. Cells were plated at 100,000 cells per well in a 96-well plate, treated with fMLP (1 μM) and N-Succinyl-Ala-Ala-Ala-p-nitroanalide (1 μM) (Sigma) and incubated for 2 h. Intensity of digested substrate after incubation was determined by measuring the absorbance at 405 nm on a Fluostar Omega (BMG Labtech, NC, USA).

A549 cells = experiment: Cell cycle analysis / CSE induced apoptosis in A549 cells; type: cell-based; details: compound alone, CSE 72 h
Description: A549 cells were plated in 6-well plates at a density of 100,000 cells per well and stimulated with CSE for 72 h. After incubation, cells were fixed in 70% ethanol and stored at 4° C. till analysis. Cells were stained with Guava Cell Cycle reagent according to the manufacturer's instructions. Cell cycle data were obtained using the Guava Personal Cell Analysis System (Millipore, USA).

MMP-9 = MMP-9 release from PMA-induced THP-1 cells (gelatin zymography); type: cell-based, human; details: Homo sapiens; compound alone; THP-1 cells, PMA; read-out: IC50 for the reduction of MMP-9
Description: Gelatinase activity of MMP-9 was determined by zymography. Proteins in supernatant (after incubation of THP-1 cells with 50 ng PMA for 24 h) were separated on gels containing 0.1% gelatin (Sigma, USA). Gels were re-natured by incubation in 2.5% Triton X-100 for 30 min, incubated overnight in substrate buffer (50 mMTris-HCl, pH 7.5) containing 10 mM CaCl2 and 0.05% ZnCl2 at 37° C. and stained with Coomassie brilliant blue (0.5%). […] Molecular weight markers (Fermentas, Lithuania) were run with each gel. Band intensity was calculated using ImageJ 1.42 (NIH, USA).

pIC50 (pAkt (S473)): 5.71 | pIC50 (elastase; human neutrophils, read-out: IC50 of inhibition of fMLP induced elastase release): 7.99 | pIC50 (MMP-9): 6.24
Structure (SMILES): O=C(Nc1c(Cl)cncc1Cl)c1ccc(OC(F)F)c(OCC2CC2)c1 [Compound A, roflumilast, reference compound]
percent inhibition of neutrophil infiltration (neutrophil infiltration; 0.3 mg/kg oral, rat BAL fluid 6 h after LPS): −7.89% | percent inhibition of neutrophil infiltration (neutrophil infiltration; 1 mg/kg oral, dose-response study, rat): 43.46% | percent inhibition of neutrophil infiltration (neutrophil infiltration; 3 mg/kg oral, rat): 68.02% | percent inhibition of neutrophil infiltration (neutrophil infiltration; 10 mg/kg oral, rat): 92.21% | ED50 (neutrophil infiltration; Neutrophil, oral, rat LPS pulmonary neutrophilia, read-out: 50% inhibition (ED50) dose, neutrophil infiltration): 1.8 mg/kg | inhibition of neutrophil infiltration (neutrophil infiltration; combination study, alone at 1.8 mg/kg, rat): 36.18% | decrease of TNFα secretion (TNFα): 25% | inhibition of macrophage infiltration [1]: 6.30% | inhibition of neutrophil infiltration [1]: 34.60% | Emax (elastase; Homo sapiens, read-out: Emax of inhibition of elastase release): 43% | inhibition of apoptosis (A549 cells): dose-dependent inhibition of apoptosis

From patent US10413532B2, “Pharmaceutical compositions containing a PDE4 inhibitor and a PI3 delta or dual PI3 delta-gamma kinase inhibitor” (Rhizen Pharmaceuticals SA, priority 2012, dated 2019)
